Laboratory results from patent publication US10597388B2, “Pyridazinone herbicides” (FMC CORPORATION, priority 2014, dated 2020).

Assays:
Type in all cases: in vivo
[1] = test system: arrowleaf sida (Sida rhombifolia); experiment: Test E greenhouse herbicide test, pre- and postemergence; details: Postemergence
Description: (§1) Seeds of plant species selected from corn (Zea mays), soybean (Glycine max), velvetleaf (Abutilon theophrasti), lambsquarters (Chenopodium album), wild poinsettia (Euphorbia heterophylla), pigweed, palmer (palmer pigweed, Amaranthus palmeri), waterhemp (common waterhemp, Amaranthus rudis), surinam grass (Brachiaria decumbens), crabgrass, large (large crabgrass, Digitaria sanguinalis), crabgrass, Brazilian (Brazilian crabgrass, Digitaria horizontalis), panicum, fall (fall panicum, Panicum dichotomiflorum), foxtail, giant (giant foxtail, Setaria faberii), foxtail, green (green foxtail, Setaria viridis), goosegrass (Eleusine indica), johnsongrass (Sorghum halepense), ragweed (common ragweed, Ambrosia elatior), barnyardgrass (Echinochloa crus-galli), sandbur (southem sandbur, Cenchrus echinatus), arrowleaf sida (Sida rhombifolia), Italian ryegrass (Lolium multiflorum), dayflower (Virginia (VA) dayflower, Commelina virginica), field bindweed (Convolvulus arvensis), momingglory (Ipomoea coccinea), nightshade (eastern black nightshade, Solanum ptycanthum), kochia (Kochia scoparia), nutsedge, yellow (yellow nutsedge, Cyperus esculentus), horseweed (Conyza canadensis), and beggarticks (hairy beggarticks, Bidens pilosa), were planted into a silt loam soil and treated preemergence with test chemicals formulated in a non-phytotoxic solvent mixture which included a surfactant.
(§2) At the same time, plants from these crop and weed species and also waterhemp_RES1, (ALS & Triazine resistant common waterhemp, Amaranthus rudis), and waterhemp_RES2, (ALS & HPPD resistant common waterhemp, Amaranthus rudis) were planted in pots containing Redi-Earth® planting medium (Scotts Company, 14111 Scottslawn Road, Marysville, Ohio 43041) comprising spaghnum peat moss, vermiculite, wetting agent and starter nutrients were treated with postemergence applications of test chemicals formulated in the same manner. Plants ranged in height from 2 to 18 cm for postemergence treatments (1- to 4-leaf stage). Treated plants and controls were maintained in a greenhouse for 14 to 21 d, after which time all species were compared to controls and visually evaluated. Plant response ratings, summarized in Table E, are based on a scale of 0 to 100 where 0 is no effect and 100 is complete control. A dash (-) response means no test result.

[2] = test system: crabgrass, Brazilian (Brazilian crabgrass, Digitaria horizontalis); experiment: as above; details: Postemergence
Description: as §1, §2

[3] = test system: horseweed (Conyza canadensis); experiment: as above; details: Postemergence
Description: as §1, §2

kochia (Kochia scoparia) = experiment: as above; details: Postemergence
Description: as §1, §2

[4] = test system: pigweed, palmer (palmer pigweed, Amaranthus palmeri); experiment: as above; details: Postemergence
Description: as §1, §2

[5] = test system: ragweed (common ragweed, Ambrosia elatior); experiment: as above; details: Postemergence
Description: as §1, §2

[6] = test system: sandbur (southem sandbur, Cenchrus echinatus); experiment: as above; details: Postemergence
Description: as §1, §2

soybean (Glycine max) = experiment: as above; details: Postemergence
Description: as §1, §2

[7] = test system: waterhemp (common waterhemp, Amaranthus rudis); experiment: as above; details: Postemergence
Description: as §1, §2

[8] = test system: waterhemp_RES1 (ALS & Triazine resistant common waterhemp, Amaranthus rudis); experiment: Test E greenhouse herbicide test, postemergence
Experimental: as §2

[9] = test system: waterhemp_RES2 (ALS & HPPD resistant common waterhemp, Amaranthus rudis); experiment: Test E greenhouse herbicide test, postemergence
Experimental: as §2

[10] = 62 g ai/ha, scale 0 to 100 (0 no effect, 100 complete control)
[11] = 125 g ai/ha, scale 0 to 100 (0 no effect, 100 complete control)
[12] = 250 g ai/ha, scale 0 to 100 (0 no effect, 100 complete control)
[13] = 31 g ai/ha, visual, scale 0 no effect to 100 complete control
[14] = 16 g ai/ha, visual, scale 0 no effect to 100 complete control

Compound: CCC(=O)Oc1c(C)nn(C)c(=O)c1-c1c(C)sc2ccc(C)cc12 [Compound 42]
- Plant response rating, Arrowleaf Sida [1, 10]: 60
- Plant response rating, Arrowleaf Sida [1, 11]: 70
- Plant response rating, Arrowleaf Sida [1, 12]: 80
- Plant response rating, Arrowleaf Sida [1, 13]: 20
- Plant response rating, Crabgrass, Brazil [2, 10]: 35
- Plant response rating, Crabgrass, Brazil [2, 11]: 40
- Plant response rating, Crabgrass, Brazil [2, 12]: 50
- Plant response rating, Crabgrass, Brazil [2, 13]: 20
- Plant response rating, Horseweed [3, 10]: 75
- Plant response rating, Horseweed [3, 11]: 75
- Plant response rating, Horseweed [3, 12]: 85
- Plant response rating, Horseweed [3, 13]: 75
- Plant response rating, Kochia (kochia (Kochia scoparia); [10]): 85
- Plant response rating, Kochia (kochia (Kochia scoparia); [11]): 95
- Plant response rating, Kochia (kochia (Kochia scoparia); [12]): 98
- Plant response rating, Kochia (kochia (Kochia scoparia); [13]): 75
- Plant response rating, Pigweed, Palmer [4, 10]: 75
- Plant response rating, Pigweed, Palmer [4, 11]: 60
- Plant response rating, Pigweed, Palmer [4, 12]: 95
- Plant response rating, Pigweed, Palmer [4, 13]: 70
- Plant response rating, Ragweed [5, 10]: 85
- Plant response rating, Ragweed [5, 11]: 95
- Plant response rating, Ragweed [5, 12]: 90
- Plant response rating, Ragweed [5, 13]: 90
- Plant response rating, Sandbur [6, 10]: 50
- Plant response rating, Sandbur [6, 11]: 60
- Plant response rating, Sandbur [6, 12]: 60
- Plant response rating, Sandbur [6, 13]: 35
- Plant response rating, Soybean (soybean (Glycine max); [10]): 20
- Plant response rating, Soybean (soybean (Glycine max); [11]): 30
- Plant response rating, Soybean (soybean (Glycine max); [12]): 50
- Plant response rating, Soybean (soybean (Glycine max); [13]): 10
- Plant response rating, Waterhemp [7, 10]: 80
- Plant response rating, Waterhemp [7, 11]: 100
- Plant response rating, Waterhemp [7, 12]: 90
- Plant response rating, Waterhemp [7, 13]: 75
- Plant response rating, Waterhemp_RES1 [8, 13]: 75
- Plant response rating, Waterhemp_RES1 [8, 10]: 75
- Plant response rating, Waterhemp_RES1 [8, 11]: 70
- Plant response rating, Waterhemp_RES1 [8, 12]: 98
- Plant response rating, Waterhemp_RES2 [9, 13]: 60
- Plant response rating, Waterhemp_RES2 [9, 10]: 65
- Plant response rating, Waterhemp_RES2 [9, 11]: 70
- Plant response rating, Waterhemp_RES2 [9, 12]: 80

Compound: CC(=O)Oc1c(C)nn(C)c(=O)c1-c1ccc(F)c2ccccc12 [Compound 90]
- Plant response rating, Arrowleaf Sida [1, 10]: 90
- Plant response rating, Arrowleaf Sida [1, 11]: 90
- Plant response rating, Arrowleaf Sida [1, 14]: 70
- Plant response rating, Arrowleaf Sida [1, 13]: 80
- Plant response rating, Crabgrass, Brazil [2, 10]: 50
- Plant response rating, Crabgrass, Brazil [2, 11]: 70
- Plant response rating, Crabgrass, Brazil [2, 14]: 50
- Plant response rating, Crabgrass, Brazil [2, 13]: 55
- Plant response rating, Horseweed [3, 10]: 75
- Plant response rating, Horseweed [3, 11]: 70
- Plant response rating, Horseweed [3, 14]: 50
- Plant response rating, Horseweed [3, 13]: 70
- Plant response rating, Kochia (kochia (Kochia scoparia); [10]): 95
- Plant response rating, Kochia (kochia (Kochia scoparia); [11]): 100
- Plant response rating, Kochia (kochia (Kochia scoparia); [14]): 90
- Plant response rating, Kochia (kochia (Kochia scoparia); [13]): 90
- Plant response rating, Pigweed, Palmer [4, 10]: 50
- Plant response rating, Pigweed, Palmer [4, 11]: 60
- Plant response rating, Pigweed, Palmer [4, 14]: 40
- Plant response rating, Pigweed, Palmer [4, 13]: 65
- Plant response rating, Ragweed [5, 10]: 80
- Plant response rating, Ragweed [5, 11]: 90
- Plant response rating, Ragweed [5, 14]: 50
- Plant response rating, Ragweed [5, 13]: 75
- Plant response rating, Sandbur [6, 11]: 50
- Plant response rating, Sandbur [6, 14]: 40
- Plant response rating, Sandbur [6, 13]: 40
- Plant response rating, Soybean (soybean (Glycine max); [11]): 60
- Plant response rating, Soybean (soybean (Glycine max); [14]): 20
- Plant response rating, Soybean (soybean (Glycine max); [13]): 30
- Plant response rating, Waterhemp [7, 11]: 90
- Plant response rating, Waterhemp [7, 14]: 50
- Plant response rating, Waterhemp [7, 13]: 70
- Plant response rating, Waterhemp_RES1 [8, 14]: 50
- Plant response rating, Waterhemp_RES1 [8, 13]: 50
- Plant response rating, Waterhemp_RES1 [8, 11]: 80
- Plant response rating, Waterhemp_RES2 [9, 14]: 50
- Plant response rating, Waterhemp_RES2 [9, 13]: 50
- Plant response rating, Waterhemp_RES2 [9, 11]: 70

Compound: COc1nn(C)c(=O)c(-c2c(C)sc3ccc(Cl)cc23)c1O [Compound 100]
- Plant response rating, Arrowleaf Sida [1, 10]: 60
- Plant response rating, Arrowleaf Sida [1, 11]: 70
- Plant response rating, Arrowleaf Sida [1, 12]: 75
- Plant response rating, Arrowleaf Sida [1, 13]: 50
- Plant response rating, Crabgrass, Brazil [2, 10]: 50
- Plant response rating, Crabgrass, Brazil [2, 11]: 40
- Plant response rating, Crabgrass, Brazil [2, 12]: 50
- Plant response rating, Crabgrass, Brazil [2, 13]: 25
- Plant response rating, Horseweed [3, 10]: 70
- Plant response rating, Horseweed [3, 11]: 75
- Plant response rating, Horseweed [3, 12]: 80
- Plant response rating, Horseweed [3, 13]: 35
- Plant response rating, Kochia (kochia (Kochia scoparia); [10]): 80
- Plant response rating, Kochia (kochia (Kochia scoparia); [11]): 80
- Plant response rating, Kochia (kochia (Kochia scoparia); [12]): 100
- Plant response rating, Kochia (kochia (Kochia scoparia); [13]): 60
- Plant response rating, Pigweed, Palmer [4, 10]: 30
- Plant response rating, Pigweed, Palmer [4, 11]: 40
- Plant response rating, Pigweed, Palmer [4, 12]: 50
- Plant response rating, Pigweed, Palmer [4, 13]: 20
- Plant response rating, Ragweed [5, 10]: 85
- Plant response rating, Ragweed [5, 11]: 90
- Plant response rating, Ragweed [5, 12]: 90
- Plant response rating, Ragweed [5, 13]: 75
- Plant response rating, Sandbur [6, 11]: 40
- Plant response rating, Sandbur [6, 12]: 50
- Plant response rating, Sandbur [6, 13]: 20
- Plant response rating, Soybean (soybean (Glycine max); [11]): 0
- Plant response rating, Soybean (soybean (Glycine max); [12]): 0
- Plant response rating, Soybean (soybean (Glycine max); [13]): 0
- Plant response rating, Waterhemp [7, 12]: 90
- Plant response rating, Waterhemp [7, 13]: 80
- Plant response rating, Waterhemp_RES1 [8, 13]: 80
- Plant response rating, Waterhemp_RES1 [8, 11]: 85
- Plant response rating, Waterhemp_RES1 [8, 12]: 90
- Plant response rating, Waterhemp_RES2 [9, 13]: 50
- Plant response rating, Waterhemp_RES2 [9, 11]: 65
- Plant response rating, Waterhemp_RES2 [9, 12]: 70
